Test results taken from patent publication US20200352934A1, “LOW-TEMPERATURE STABLE OPIOID ANTAGONIST SOLUTIONS” (priority 2017, published 2020).
Read-outs that look alike come from different tables or passages of the source.

Settings: storage at 4° C.
[1] = per 100 mL: EDTA-Na2 0 mg, PG 5% w/v
[2] = per 100 mL: EDTA-Na2 0 mg, PG 10% w/v
[3] = per 100 mL: EDTA-Na2 0 mg, PG 20% w/v
[4] = per 100 mL: EDTA-Na2 100 mg, PG 5% w/v
[5] = per 100 mL: EDTA-Na2 100 mg, PG 10% w/v
[6] = per 100 mL: EDTA-Na2 100 mg, PG 20% w/v

With `C=CCN1CC[C@]23c4c5ccc(O)c4O[C@H]2C(=O)CC[C@@]3(O)[C@H]1C5` [Naloxone] the “Observed naloxone precipitation 24 days” value [1] was “No”, the “Observed naloxone precipitation 24 days” value [2] was “No” and the “Observed naloxone precipitation 24 days” value [3] was “No”. The “Observed naloxone precipitation 24 days” value [4] was “No”, the “Observed naloxone precipitation 24 days” value [5] was “No” and the “Observed naloxone precipitation 24 days” value [6] was “No and Slight”. The “Observed naloxone precipitation 35 days” value [1] was “No”, the “Observed naloxone precipitation 35 days” value [2] was “No” and the “Observed naloxone precipitation 35 days” value [3] was “No”. For the same molecule, the “Observed naloxone precipitation 35 days” value [4] was “No”, the “Observed naloxone precipitation 35 days” value [5] was “No” and the “Observed naloxone precipitation 35 days” value [6] was “No and Yes”. For the same molecule, the “Observed naloxone precipitation 53 days” value [1] was “No”, the “Observed naloxone precipitation 53 days” value [2] was “No” and the “Observed naloxone precipitation 53 days” value [3] was “No”. The “Observed naloxone precipitation 53 days” value [4] was “No”, the “Observed naloxone precipitation 53 days” value [5] was “No and Slight” and the “Observed naloxone precipitation 53 days” value [6] was “No and Yes”.
